Results from US20240025875A1, “A COMPOUND AS A THYROID HORMONE BETA RECEPTOR AGONIST AND USE THEREOF” (SUNSHINE LAKE PHARMA CO., LTD., priority 2020, published 2024).

Legend:
[1] = target: T1, TRα (Homo sapiens, UniProt P10827); test: LanthaScreen TR-FRET Thyroid Receptor alfa Coactivator Assay (in vitro binding activity); conditions: TR alfa-LBD
T1 construct: 5 μL of 4×TR beta/alfa-LBD; purchased Invitrogen PV4687
Protocol: (§1) 2. Detection of the Binding Activity of the Compound of the Present Invention to TRα or TRβ In Vitro
(§2) Test Materials • LanthaScreen TR-FRET Thyroid Receptor beta Coactivator Assay kit was purchased from Invitrogen, Cat. No. PV4686; • LanthaScreen TR-FRET Thyroid Receptor alfa Coactivator Assay kit was purchased from Invitrogen, Cat. No. PV4687.
(§3) The method was experimented with LanthaScreen TR-FRET Thyroid Receptor beta/alfa Coactivator Assay kit. The test compound was dissolved in DMSO and diluted 3 times to a total of 10 concentrations, and then diluted with TR-FRET Coregulator Buffer C in the kit to form a solution containing 2% DMSO, 10 μL of the solution containing 2% DMSO was taken into a 384-well plate, then 5 μL of 4×TR beta/alfa-LBD, 5 μL of a mixture containing 0.4 μM fluorescein-SRC2-2 and 8 nM Tb anti-GST antibody were added into each well, mixed thoroughly, and incubated at room temperature for 1 h in the dark. After 1 h, BMG LABTECH's PHERAstar FSX microplate reader was used to read the fluorescence value (RFU) at […]. The TR-FRET ratio was calculated by dividing the emission signal at 520 nm by the emission signal at 495 nm. Graph Pad Prism 5 software was used to draw the curve and calculate the EC50 value. The in vitro binding activity test results of some of the compounds of the examples of the present invention are shown in Table 1 below.

[2] = target: T2, TRβ (Homo sapiens, UniProt P10828); test: LanthaScreen TR-FRET Thyroid Receptor beta Coactivator Assay (in vitro binding activity); conditions: TR beta-LBD
T2 construct: 5 μL of 4×TR beta/alfa-LBD; purchased Invitrogen PV4686
T2 sequence (P10828 217-461 limits assumed): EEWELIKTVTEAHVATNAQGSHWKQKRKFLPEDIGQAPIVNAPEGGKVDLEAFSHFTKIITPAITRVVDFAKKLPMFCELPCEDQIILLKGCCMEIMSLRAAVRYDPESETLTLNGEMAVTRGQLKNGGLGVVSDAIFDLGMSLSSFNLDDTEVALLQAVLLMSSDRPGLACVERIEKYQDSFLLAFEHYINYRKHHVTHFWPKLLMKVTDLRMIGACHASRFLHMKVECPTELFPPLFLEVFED
Protocol: as §1, §2, §3

T1 sequence (P10827 163-410 isoform P10827-2 limits assumed, other chains not shown): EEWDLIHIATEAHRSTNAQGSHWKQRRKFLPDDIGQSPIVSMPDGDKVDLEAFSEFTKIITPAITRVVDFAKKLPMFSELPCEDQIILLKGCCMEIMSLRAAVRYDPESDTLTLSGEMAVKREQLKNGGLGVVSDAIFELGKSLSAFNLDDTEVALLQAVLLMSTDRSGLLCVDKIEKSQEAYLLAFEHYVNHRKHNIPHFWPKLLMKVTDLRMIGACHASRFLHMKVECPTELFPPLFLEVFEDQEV

| Compound | EC50 [1] [µM] | EC50 [2] [µM] |
| --- | --- | --- |
| Cc1ccc(CN2CCc3cc(Oc4c(Cl)cc(-n5nc(C#N)c(=O)[nH]c5=O)cc4Cl)ccc3C2=O)cc1 [Example 21d, 2-(3,5-dichloro-4-((2-(4-methylbenzyl)-1-oxo-1,2,3,4-tetrahydroisoquinolin-6-yl)oxy)phenyl)-3,5-dioxo-2,3,4,5-tetrahydro-1,2,4-triazine-6-carbonitrile] | > 100 | 0.368 |
| N#Cc1nn(-c2cc(Cl)c(Oc3ccc4c(c3)CCN(Cc3ccc(F)c(Cl)c3)C4=O)c(Cl)c2)c(=O)[nH]c1=O [Example 35d, 2-(3,5-dichloro-4-((2-(3-chloro-4-fluorobenzyl)-1-oxo-1,2,3,4-tetrahydroisoquinolin-6-yl)oxy)phenyl)-3,5-dioxo-2,3,4,5-tetrahydro-1,2,4-triazine-6-carbonitrile] | > 100 | 0.08 |
| O=C1c2ccc(Oc3c(Cl)cc(-n4ncc(=O)[nH]c4=O)cc3Cl)cc2CCN1Cc1cccnn1 [Example 25, 2-(3,5-dichloro-4-((1-oxo-2-(pyridazin-3-ylmethyl)-1,2,3,4-tetrahydroisoquinolin-6-yl)oxy)phenyl)-1,2,4-triazine-3,5(2H,4H)-dione] | > 100 | 0.241 |
| Cc1ccc(N2CCc3cc(Oc4c(Cl)cc(-n5nc(C#N)c(=O)[nH]c5=O)cc4Cl)ccc3C2=O)cc1 [Example 27, 2-(3,5-dichloro-4-((1-oxo-2-(p-tolyl)-1,2,3,4-tetrahydroisoquinolin-6-yl)oxy)phenyl)-3,5-dioxo-2,3,4,5-tetrahydro-1,2,4-triazine-6-carbonitrile] | > 100 | 0.14 |
| COCN1CCc2cc(Oc3c(Cl)cc(-n4nc(C#N)c(=O)[nH]c4=O)cc3Cl)ccc2C1=O [Example 3, 2-(3,5-dichloro-4-((2-(methoxymethyl)-1-oxo-1,2,3,4-tetrahydroisoquinolin-6-yl)oxy)phenyl)-3,5-dioxo-2,3,4,5-tetrahydro-1,2,4-triazine-6-carbonitrile] | 0.29 | 0.026 |
| O=C1c2ccc(Oc3c(Cl)cc(-n4ncc(=O)[nH]c4=O)cc3Cl)cc2CCN1c1ccccn1 [Example 47] | 0.161 | 0.039 |
| N#Cc1nn(-c2cc(Cl)c(Oc3ccc4c(c3)CCN(Cc3ccc(F)c(F)c3)C4=O)c(Cl)c2)c(=O)[nH]c1=O [Example 30d, 2-(3,5-dichloro-4-((2-(3,4-difluorobenzyl)-1-oxo-1,2,3,4-tetrahydroisoquinolin-6-yl)oxy)phenyl)-3,5-dioxo-2,3,4,5-tetrahydro-1,2,4-triazine-6-carbonitrile] | > 100 | 0.065 |
| N#Cc1nn(-c2cc(Cl)c(Oc3ccc4c(c3)CCN(CC3CC3)C4=O)c(Cl)c2)c(=O)[nH]c1=O [Example 38, 2-(3,5-dichloro-4-((2-(cyclopropylmethyl)-1-oxo-1,2,3,4-tetrahydroisoquinolin-6-yl)oxy)phenyl)-3,5-dioxo-2,3,4,5-tetrahydro-1,2,4-triazine-6-carbonitrile] | < 0.046 | < 0.0046 |
| COc1cccc(CN2CCc3cc(Oc4c(Cl)cc(-n5ncc(=O)[nH]c5=O)cc4Cl)ccc3C2=O)c1 [Example 36, 2-(3,5-dichloro-4-((2-(3-methoxybenzyl)-1-oxo-1,2,3,4-tetrahydroisoquinolin-6-yl)oxy)phenyl)-1,2,4-triazine-3,5(2H,4H)-dione] | 0.079 | < 0.0046 |
| N#Cc1nn(-c2cc(Cl)c(Oc3ccc4c(c3)CCN(COCC(F)F)C4=O)c(Cl)c2)c(=O)[nH]c1=O [Example 15, 2-(3,5-dichloro-4-((1-oxo-2-((2,2-difluoroethoxy)methyl)-1,2,3,4-tetrahydroisoquinolin-6-yl)oxy)phenyl)-3,5-dioxo-2,3,4,5-tetrahydro-1,2,4-triazine-6-carbonitrile] | 0.176 | 0.024 |
| N#Cc1nn(-c2cc(Cl)c(Oc3ccc4c(c3)CCN(Cc3ccccc3)C4=O)c(Cl)c2)c(=O)[nH]c1=O [Example 18, 2-(4-((2-Benzyl-1-oxo-1,2,3,4-tetrahydroisoquinolin-6-yl)oxy)-3,5-dichlorophenyl)-3,5-dioxo-2,3,4,5-tetrahydro-1,2,4-triazine-6-carbonitrile] | > 100 | 0.192 |
| Cc1ccc(F)cc1CN1CCc2cc(Oc3c(Cl)cc(-n4nc(C#N)c(=O)[nH]c4=O)cc3Cl)ccc2C1=O [Example 40d, 2-(3,5-dichloro-4-((2-(5-fluoro-2-methylbenzyl)-1-oxo-1,2,3,4-tetrahydroisoquinolin-6-yl)oxy)phenyl)-3,5-dioxo-2,3,4,5-tetrahydro-1,2,4-triazine-6-carbonitrile] | > 100 | 0.035 |
| O=C1c2ccc(Oc3c(Cl)cc(-n4ncc(=O)[nH]c4=O)cc3Cl)cc2CCN1Cc1ccccc1 [Example 22, 2-(4-((2-benzyl-1-oxo-1,2,3,4-tetrahydroisoquinolin-6-yl)oxy)-3,5-dichlorophenyl)-1,2,4-triazine-3,5(2H,4H)-dione] | 0.156 | 0.011 |
| N#Cc1nn(-c2cc(Cl)c(Oc3ccc4c(c3)CCN(CO)C4=O)c(Cl)c2)c(=O)[nH]c1=O [Example 39, 2-(3,5-dichloro-4-((2-(hydroxymethyl)-1-oxo-1,2,3,4-tetrahydroisoquinolin-6-yl)oxy)phenyl)-3,5-dioxo-2,3,4,5-tetrahydro-1,2,4-triazine-6-carbonitrile] | > 100 | 0.472 |
| Cc1cc(-n2nc(C#N)c(=O)[nH]c2=O)cc(C)c1Oc1ccc2c(c1)CCNC2=O [Example 26, 2-(3,5-dimethyl-4-((1-oxo-1,2,3,4-tetrahydroisoquinolin-6-yl)oxy)phenyl)-3,5-dioxo-2,3,4,5-tetrahydro-1,2,4-triazine-6-carbonitrile] | 7.04 | 0.476 |
| O=C1c2ccc(Oc3c(Cl)cc(-n4ncc(=O)[nH]c4=O)cc3Cl)cc2CCN1c1ncccn1 [Example 50, 2-(3,5-dichloro-4-((1-oxo-2-(pyrimidin-2-yl)-1,2,3,4-tetrahydroisoquinolin-6-yl)oxy)phenyl)-1,2,4-triazine-3,5(2H,4H)-dione] | 0.274 | 0.12 |
| N#Cc1nn(-c2cc(Cl)c(Oc3ccc4c(c3)NC(=O)CC4)c(Cl)c2)c(=O)[nH]c1=O [Example 8, 2-(3,5-dichloro-4-((2-oxo-1,2,3,4-tetrahydroquinolin-7-yl)oxy)phenyl)-3,5-dioxo-2,3,4,5-tetrahydro-1,2,4-triazine-6-carbonitrile] | > 100 | > 10 |
| N#Cc1nn(-c2cc(Cl)c(Oc3ccc4c(c3)C(=O)NCC4)c(Cl)c2)c(=O)[nH]c1=O [Example 9, 2-(3,5-dichloro-4-((1-oxo-1,2,3,4-tetrahydroisoquinolin-7-yl)oxy)phenyl)-3,5-dioxo-2,3,4,5-tetrahydro-1,2,4-triazine-6-carbonitrile] | > 100 | > 10 |
| COCCN1CCc2cc(Oc3c(Cl)cc(-n4nc(C#N)c(=O)[nH]c4=O)cc3Cl)ccc2C1=O [Example 10, 2-(3,5-Dichloro-4-((2-(2-methoxyethyl)-1-oxo-1,2,3,4-tetrahydroisoquinolin-6-yl)oxy)phenyl)-3,5-dioxo-2,3,4,5-tetrahydro-1,2,4-triazine-6-carbonitrile] | 0.206 | 0.049 |
| O=C1c2ccc(Oc3c(Cl)cc(-n4ncc(=O)[nH]c4=O)cc3Cl)cc2CCN1Cc1cc(F)cc(F)c1 [Example 32, 2-(3,5-dichloro-4-((2-(3,5-difluorobenzyl)-1-oxo-1,2,3,4-tetrahydroisoquinolin-6-yl)oxy)phenyl)-1,2,4-triazine-3,5(2H,4H)-dione] | 0.181 | 0.0046 |
| N#Cc1nn(-c2cc(Cl)c(Oc3ccc4c(c3)CCN(COCC(F)(F)F)C4=O)c(Cl)c2)c(=O)[nH]c1=O [Example 14, 2-(3,5-Dichloro-4-((1-oxo-2-((2,2,2-trifluoroethoxy)methyl)-1,2,3,4-tetrahydroisoquinolin-6-yl)oxy)phenyl)-3,5-dioxo-2,3,4,5-tetrahydro-1,2,4-triazine-6-carbonitrile] | 0.226 | 0.03 |
| N#Cc1nn(-c2cc(Cl)c(Oc3ccc4c(c3)CCN(Cc3ccc(F)cc3)C4=O)c(Cl)c2)c(=O)[nH]c1=O [Example 20d, 2-(3,5-dichloro-4-((2-(4-fluorobenzyl)-1-oxo-1,2,3,4-tetrahydroisoquinolin-6-yl)oxy)phenyl)-3,5-dioxo-2,3,4,5-tetrahydro-1,2,4-triazine-6-carbonitrile] | > 100 | 0.534 |
| O=C1c2ccc(Oc3c(Cl)cc(-n4ncc(=O)[nH]c4=O)cc3Cl)cc2CCN1Cc1ccccc1F [Example 33, 2-(3,5-dichloro-4-((2-(2-fluorobenzyl)-1-oxo-1,2,3,4-tetrahydroisoquinolin-6-yl)oxy)phenyl)-1,2,4-triazine-3,5(2H,4H)-dione] | 0.156 | 0.017 |
